# Measured values taken from patent publication US11236055B2 (Venenum Biodesign, LLC, priority 2016, dated 2022).
# Like-named read-outs stand apart in the source and are kept apart here.
# How the values were obtained:
# mouse TGR5 receptor = biological target: T1, mouse TGR5 receptor (Mus musculus, UniProt Q80SS6); assay: Mouse TGR5 cAMP production assay (luminescent, DiscoveRx cAMP XS+); type: cell-based; conditions: HEK293-EBNA cells overexpressing mouse TGR5, luminescent cAMP XS+; coded A-D; read-out: Mouse TGR5 Lum. cAMP Activity (EC50)
# T1 construct: expressed in transfected cells; host or cells: HEK293-EBNA (293 c18, ATCC CRL10852), Hygromycin B selection
# T1 sequence (Q80SS6 1-329): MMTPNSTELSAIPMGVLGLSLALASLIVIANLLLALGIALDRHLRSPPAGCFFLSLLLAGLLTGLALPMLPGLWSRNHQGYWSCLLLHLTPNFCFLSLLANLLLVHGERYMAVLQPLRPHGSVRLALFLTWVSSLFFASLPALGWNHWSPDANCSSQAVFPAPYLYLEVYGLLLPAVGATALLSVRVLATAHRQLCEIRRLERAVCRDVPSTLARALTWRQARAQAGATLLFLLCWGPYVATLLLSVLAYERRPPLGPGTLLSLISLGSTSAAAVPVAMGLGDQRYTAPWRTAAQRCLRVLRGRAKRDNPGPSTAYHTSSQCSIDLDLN
# In short: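 HEK293-EBNA cells stably expressing mouse TGR5 were suspended in serum-free DMEM with 500 μM IBMX and preincubated 20 min with cAMP antibody. They were then exposed to half-log compound dilutions for 1 h at room temperature. cAMP measured by enzyme-fragment complementation luminescence after overnight incubation; EC50 derived.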
# [1] = Comparison of PK in DIO mice and lean mice; type: in vivo, mouse; conditions: for Cmax / Tmax / AUC(0-t): mouse, plasma, po; for AUC(0-t): read-out: AUC (0-4 h)
# Description: Comparison of PK in DIO Mice and Lean Mice
# The PK characteristics of Compound 20AA were examined in non-fasted lean C57BL/6N and DIO mice (Taconic). Compound 20AA was orally administered to both groups at 10 mg/kg by oral gavage and plasma concentration of the compound was determined as described in Example 59.
# In addition, PK parameters were determined for Compound 20AA (i.e., Cmax, Tmax and AUC) following oral administration in four groups of mice: (i) fasted lean mice; (ii) non-fasted lean mice; (iii) non-fasted DIO mice; and (iv) lean mice receiving ABT.
# [2] = Bile weight after multiple days of dosing in DIO mice; type: in vivo, mouse; conditions: 12 days of dosing, about 6 h after final dose
# Description: No Bile Weight Increase after Multiple Days of Dosing Compounds
# Compounds of the present invention were dosed for multiple days and evaluated for an increase in bile weight within the gallbladder. In this example, the protocol from Example 66 was utilized. In week 2 of the study, mice were euthanized and bile was removed from the gallbladder about 6 hours after the final dose and the bile was weighed to approximate the volume of bile contained within the bladder.
# [3] = tested on: GLP-1 plasma level in DIO mice; assay: GLP-1 levels after multiple days of dosing in DIO mice; type: in vivo, mouse; conditions: 12 days BID oral, in combination with linagliptin, 6 h after final dose
# Description: GLP-1 Levels after Multiple Days of Dosing Compounds
# Compounds of the present invention were dosed for multiple days and were evaluated to determine if they produce sustained GLP-1 levels. In this example, the protocol from Example 66 was utilized. In week 2 of the study, mice were euthanized and blood was collected 6 hours after the final dose of compound. For the GLP-1 assay, 200-250 μL of blood was placed in an EDTA K^2+ tube containing 5 μL of 40 mg/mL aprotinin (Sigma A1153) and 1 μL of 10 mM sitagliptin (Sigma S8576) and plasma was separated by centrifugation. Plasma samples were stored at −20° C. until analysis. The active form of GLP-1 [GLP-1 (7-36) amide] was analyzed using Meso Scale Discovery System according to the manufacturer's directions (item number K150HYC). Values of p<0.05 are considered statistically significant.
# [4] = C57BL/6N, 10 mg/kg, DIO mice, non-fasted, 10 mpk
# [5] = C57BL/6N, 10 mg/kg, Lean mice, non-fasted, 10 mpk
# [6] = C57BL/6N, 10 mg/kg, Non-fasted DIO mice, 10 mg/kg oral
# [7] = C57BL/6N, 10 mg/kg, Non-fasted Lean mice, 10 mg/kg oral
# [8] = Fasted Lean mice, oral administration
compound,measurement,setting,value
"CCc1cnccc1-c1cccc(C(C)(C)NS(=O)(=O)c2ccccc2C(F)(F)F)c1 [Compound 5, N-(2-(3-(3-ethylpyridin-4-yl)phenyl)propan-2-yl)-2-(trifluoromethyl)benzenesulfonamide]",EC50,mouse TGR5 receptor,< 100 nM
"Cc1cnccc1-c1cccc(C(C)(C)NS(=O)(=O)c2cccc(C(F)(F)F)c2)c1 [Compound 5AA, N-(2-(3-(3-methylpyridin-4-yl)phenyl)propan-2-yl)-3-(trifluoromethyl)benzenesulfonamide]",EC50,mouse TGR5 receptor,< 100 nM
"Cc1cnccc1-c1cccc(C(C)(C)N(CCCC(=O)NCCS(=O)(=O)O)S(=O)(=O)c2ccccc2C(F)(F)F)c1 [Compound 20AA, 2-(4-(N-(2-(3-(3-methylpyridin-4-yl)phenyl)propan-2-yl)-2-(trifluoromethyl)phenylsulfonamido)butanamido)ethanesulfonic acid]",Cmax,[1]; [4],1.7 nM
same,Tmax,[1]; [4],1 h
same,Cmax,[1]; [5],3 nM
same,Tmax,[1]; [5],1 h
same,Cmax,[1]; [6],1.7 nM
same,Tmax,[1]; [6],1 h
same,AUC(0-t),[1]; [6],7.6 ng·h/mL
same,Cmax,[1]; [7],3 nM
same,Tmax,[1]; [7],0.25 h
same,AUC(0-t),[1]; [7],4 ng·h/mL
same,"PK profile (Cmax, Tmax, AUC)","[1]; lean and DIO mice, fasted or non-fasted, oral administration",low PK profile
same,Cmax,[1]; [8],7.2 nM
same,Tmax,[1]; [8],1 h
same,AUC(0-t),[1]; [8],26 ng·h/mL
CCc1cnccc1-c1cccc([C@H](C)N(CCCC(=O)NCCS(=O)(=O)NCC(=O)O)S(=O)(=O)c2ccccc2C(F)(F)F)c1 [Compound 20BG],bile weight / gallbladder size,[2],does not show an increase
same,GLP-1 plasma level versus vehicle,[3],significantly increased
